The data set is described as follows: Tissue distribution of 18F imaging agents in rats. The class given is in vivo, Male Sprague Dawley rats. The following applies: rat, iv tail vein ~15 μCi, ± SEM; for Blood, imaging agent distribution at 15 min / Brain, imaging agent distribution at 15 min / Femur, imaging agent distribution at 15 min / Heart, imaging agent distribution at 15 min / Kidney, imaging agent distribution at 15 min / Liver, imaging agent distribution at 15 min / Lung, imaging agent distribution at 15 min / Muscle, imaging agent distribution at 15 min / Spleen, imaging agent distribution at 15 min / Pancreas, imaging agent distribution at 15 min: 15 min post injection; for Blood, imaging agent distribution at 60 min / Brain, imaging agent distribution at 60 min / Femur, imaging agent distribution at 60 min / Heart, imaging agent distribution at 60 min / Kidney, imaging agent distribution at 60 min / Liver, imaging agent distribution at 60 min / Lung, imaging agent distribution at 60 min / Muscle, imaging agent distribution at 60 min / Spleen, imaging agent distribution at 60 min / Pancreas, imaging agent distribution at 60 min: 60 min post injection. As to the method: Anesthetized (sodium pentobarbital at 50 mg/kg, ip or isoflurane gas inhalation) Male Sprague Dawley rats (250-350 g) received an iv injection of the imaging agent (˜15 μCi) via the tail vein. At 15 or 60 min post injection, the animals were euthanized and the required tissue samples harvested. All samples were then weighed and counted for radioactivity (Wallac Wizard 1480 or Packard Cobra II Autogamma); regional tissue uptake of the imaging agent was thus expressed as a percentage of the total injected dose per gram of tissue (% ID/g).
The generic structure depicted below highlights specific structural features evaluated during distribution experiments.

On to `CC(C)(C)n1ncc(OCc2ccc(OCCF)cc2)c(Cl)c1=O` [Example 67D], for which the “Blood, imaging agent distribution at 15 min” value (shortened to “Blood … at 15 min”) is listed as 1.11 % ID/g; the “Brain, imaging agent distribution at 15 min” value (“Brain … at 15 min” for short) is listed as 0.74 % ID/g; the “Femur, imaging agent distribution at 15 min” value (“Femur … at 15 min” below) turned out to be 0.21 % ID/g; the “Heart, imaging agent distribution at 15 min” value (shortened to “Heart … at 15 min”) turned out to be 3.63 % ID/g. Besides, the “Kidney, imaging agent distribution at 15 min” value (“Kidney … at 15 min” for short) is recorded as 3.81 % ID/g; the “Liver, imaging agent distribution at 15 min” value (“Liver … at 15 min” for short) amounted to 3.61 % ID/g; the “Lung, imaging agent distribution at 15 min” value (“Lung … at 15 min” below) amounted to 1.00 % ID/g; the “Muscle, imaging agent distribution at 15 min” value (from here on “Muscle … at 15 min”) was found to be 0.14 % ID/g. Moreover, the “Spleen, imaging agent distribution at 15 min” value (“Spleen … at 15 min” for short) was 0.37 % ID/g; the “Blood, imaging agent distribution at 60 min” value (“Blood … at 60 min” for short) came to 1.00 % ID/g; the “Brain, imaging agent distribution at 60 min” value (“Brain … at 60 min” below) came to 0.69 % ID/g; the “Femur, imaging agent distribution at 60 min” value (shortened to “Femur … at 60 min”) is 0.26 % ID/g. The “Heart, imaging agent distribution at 60 min” value (“Heart … at 60 min” for short) came out at 4.66 % ID/g; the “Kidney, imaging agent distribution at 60 min” value (“Kidney … at 60 min” below) is listed as 1.71 % ID/g; the “Liver, imaging agent distribution at 60 min” value (“Liver … at 60 min” below) came to 1.49 % ID/g; the “Lung, imaging agent distribution at 60 min” value (shortened to “Lung … at 60 min”) stood at 0.96 % ID/g. Also, the “Muscle, imaging agent distribution at 60 min” value (“Muscle … at 60 min” below) is 0.18 % ID/g and the “Spleen, imaging agent distribution at 60 min” value (“Spleen … at 60 min” below) worked out at 0.23 % ID/g.

Regarding `CC(OCCF)c1ccc(COc2cnn(C(C)(C)C)c(=O)c2Cl)cc1` (stereo not shown) [Example 67G], the “Blood … at 15 min” value is recorded as 0.50 ± 0.18 % ID/g; the “Brain … at 15 min” value was 0.59 ± 0.03 % ID/g; the “Femur … at 15 min” value amounted to 0.40 ± 0.05 % ID/g; the “Heart … at 15 min” value is on record as 2.19 ± 0.36 % ID/g. Also, the “Kidney … at 15 min” value is given as 0.88 ± 0.05 % ID/g; the “Liver … at 15 min” value is listed as 0.33 ± 0.10 % ID/g; the “Lung … at 15 min” value is given as 0.46 ± 0.12 % ID/g; the “Muscle … at 15 min” value worked out at 0.35 ± 0.04 % ID/g. In addition, the “Pancreas, imaging agent distribution at 15 min” value came out at 0.41 ± 0.03 % ID/g; the “Spleen … at 15 min” value stood at 0.32 ± 0.11 % ID/g; the “Blood … at 60 min” value amounted to 0.47 ± 0.04 % ID/g; the “Brain … at 60 min” value is on record as 0.39 ± 0.05 % ID/g. Besides, the “Femur … at 60 min” value was determined as 0.58 ± 0.06 % ID/g; the “Heart … at 60 min” value is on record as 0.98 ± 0.16 % ID/g; the “Kidney … at 60 min” value amounted to 0.44 ± 0.02 % ID/g; the “Liver … at 60 min” value stood at 0.32 ± 0.03 % ID/g. For the same compound, the “Lung … at 60 min” value is recorded as 0.38 ± 0.03 % ID/g; the “Muscle … at 60 min” value is 0.33 ± 0.01 % ID/g; the “Pancreas, imaging agent distribution at 60 min” value was 0.26 ± 0.01 % ID/g; the “Spleen … at 60 min” value was found to be 0.28 ± 0.03 % ID/g.

For the compound `CC(C)(C)n1ncc(CCc2ccc(COCCF)cc2)c(Cl)c1=O` [Example 67M], the “Blood … at 15 min” value was 0.53 ± 0.13 % ID/g; the “Brain … at 15 min” value is 0.55 ± 0.31 % ID/g; the “Femur … at 15 min” value was determined as 0.52 ± 0.19 % ID/g; the “Heart … at 15 min” value came to 2.54 ± 0.20 % ID/g. The “Kidney … at 15 min” value came out at 0.79 ± 0.07 % ID/g; the “Liver … at 15 min” value was 0.96 ± 0.10 % ID/g; the “Lung … at 15 min” value was 0.97 ± 0.13 % ID/g; the “Muscle … at 15 min” value is listed as 0.24 ± 0.04 % ID/g. For the same compound, the “Spleen … at 15 min” value turned out to be 0.35 ± 0.05 % ID/g; the “Blood … at 60 min” value is given as 0.73 ± 0.16 % ID/g; the “Brain … at 60 min” value stood at 2.33 ± 0.12 % ID/g; the “Femur … at 60 min” value was found to be 0.43 ± 0.03 % ID/g. Also, the “Heart … at 60 min” value was 0.55 ± 0.06 % ID/g; the “Kidney … at 60 min” value was determined as 0.43 ± 0.04 % ID/g; the “Liver … at 60 min” value amounted to 0.43 ± 0.04 % ID/g; the “Lung … at 60 min” value was found to be 1.03 ± 0.22 % ID/g. Moreover, the “Muscle … at 60 min” value came out at 0.31 ± 0.04 % ID/g and the “Spleen … at 60 min” value came to 0.26 ± 0.03 % ID/g.

In the case of `CC(C)(C)n1ncc(OCc2ccc(C(=O)OCCF)cc2)c(Cl)c1=O` [Example 67J], the “Blood … at 15 min” value was 0.50 ± 0.02 % ID/g; the “Brain … at 15 min” value is 0.36 ± 0.01 % ID/g; the “Femur … at 15 min” value was 0.28 ± 0.02 % ID/g; the “Heart … at 15 min” value turned out to be 1.19 ± 0.25 % ID/g. The “Kidney … at 15 min” value turned out to be 0.39 ± 0.01 % ID/g; the “Liver … at 15 min” value came to 0.32 ± 0.01 % ID/g; the “Lung … at 15 min” value came to 0.39 ± 0.02 % ID/g; the “Muscle … at 15 min” value came out at 0.38 ± 0.04 % ID/g. Further, the “Pancreas, imaging agent distribution at 15 min” value is on record as 0.23 ± 0.02 % ID/g; the “Spleen … at 15 min” value was 0.34 ± 0.01 % ID/g; the “Blood … at 60 min” value turned out to be 0.58 ± 0.04 % ID/g; the “Brain … at 60 min” value was determined as 0.43 ± 0.02 % ID/g. In addition, the “Femur … at 60 min” value is recorded as 0.40 ± 0.03 % ID/g; the “Heart … at 60 min” value is 0.50 ± 0.03 % ID/g; the “Kidney … at 60 min” value was 0.42 ± 0.02 % ID/g; the “Liver … at 60 min” value came out at 0.35 ± 0.02 % ID/g. For the same compound, the “Lung … at 60 min” value is 0.42 ± 0.02 % ID/g; the “Muscle … at 60 min” value was found to be 0.31 ± 0.02 % ID/g; the “Pancreas, imaging agent distribution at 60 min” value was found to be 0.23 ± 0.03 % ID/g; the “Spleen … at 60 min” value is on record as 0.37 ± 0.02 % ID/g.

`CC(C)(C)n1ncc(OCc2ccc(OCCCF)c(Cl)c2)c(Cl)c1=O` [Example 67C]: the “Blood … at 15 min” value is recorded as 0.26 ± 0.05 % ID/g; the “Brain … at 15 min” value is on record as 0.42 ± 0.01 % ID/g; the “Femur … at 15 min” value is 0.33 ± 0.01 % ID/g; the “Heart … at 15 min” value is 4.21 ± 0.29 % ID/g. Besides, the “Kidney … at 15 min” value was found to be 3.04 ± 0.21 % ID/g; the “Liver … at 15 min” value is 2.67 ± 0.17 % ID/g; the “Lung … at 15 min” value came out at 0.50 ± 0.08 % ID/g; the “Muscle … at 15 min” value was 0.24 ± 0.04 % ID/g. For the same compound, the “Spleen … at 15 min” value was determined as 0.37 ± 0.05 % ID/g; the “Blood … at 60 min” value stood at 0.20 ± 0.07 % ID/g; the “Brain … at 60 min” value is reported as 0.44 ± 0.03 % ID/g; the “Femur … at 60 min” value is 0.84 ± 0.07 % ID/g. The “Heart … at 60 min” value was 4.54 ± 0.29 % ID/g; the “Kidney … at 60 min” value was determined as 1.77 ± 0.25 % ID/g; the “Liver … at 60 min” value is 0.65 ± 0.12 % ID/g; the “Lung … at 60 min” value was 0.61 ± 0.32 % ID/g. For the same compound, the “Muscle … at 60 min” value was 0.26 ± 0.02 % ID/g and the “Spleen … at 60 min” value turned out to be 0.18 ± 0.02 % ID/g.
